Target: T1, human mAChR M4 (Homo sapiens, UniProt P08173)
T1 construct: expressed in transfected cells; host or cells: CHO-K1 (ATCC), co-transfected with chimeric G protein Gqi5
T1 sequence (P08173 1-479): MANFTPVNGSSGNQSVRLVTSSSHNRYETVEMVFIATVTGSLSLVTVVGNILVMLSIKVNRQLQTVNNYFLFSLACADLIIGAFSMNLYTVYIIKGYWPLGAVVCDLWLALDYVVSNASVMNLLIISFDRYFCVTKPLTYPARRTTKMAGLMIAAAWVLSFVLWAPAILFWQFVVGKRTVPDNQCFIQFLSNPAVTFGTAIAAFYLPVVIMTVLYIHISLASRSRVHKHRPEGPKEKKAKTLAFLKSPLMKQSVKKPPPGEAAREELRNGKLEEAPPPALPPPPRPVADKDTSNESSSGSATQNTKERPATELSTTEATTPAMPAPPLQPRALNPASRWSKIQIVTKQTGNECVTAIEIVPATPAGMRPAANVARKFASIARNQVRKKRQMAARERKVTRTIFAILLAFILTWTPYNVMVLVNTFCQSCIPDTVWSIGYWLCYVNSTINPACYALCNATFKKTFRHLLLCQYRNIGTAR
Test: mAChR M4 cell-based functional assay (calcium flux, antagonism of EC80 acetylcholine response, M4/Gqi5/CHO-K1 cells)
Conditions: for IC50: decrease of the response elicited by an EC80 concentration of acetylcholine, CHO-K1 cells, Gqi5
Outline: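 CHO-K1 cells stably expressing human M4 with chimeric Gqi5, loaded with Fluo-4 AM; calcium flux read on FDSS. Compounds (10-point, 1:3 curves) added first, then EC20 acetylcholine at 143 s and EC80 at 268 s. IC50 from decrease of EC80 acetylcholine response, four-parameter logistic fit.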

[2H]C([2H])([C@H]1CCOC(C)(C)C1)N1C[C@H]2C[C@H](Nc3ccc(-c4cccnc4C(F)(F)F)nn3)C[C@H]2C1 (single isomer, unassigned) [Compound 61]
IC50: 3.1 nM

[2H]C([2H])([C@@H]1CCOC(C)(C)C1)N1C[C@H]2C[C@H](Nc3ccc(-c4cccnc4C(F)(F)F)nn3)C[C@H]2C1 [Compound 62, (3aR,5s,6aS)-2-(((R)-2,2-dimethyltetrahydro-2H-pyran-4-yl)methyl-d2)-N-(6-(2-(trifluoromethyl)pyridin-3-yl)pyridazin-3-yl)octahydrocyclopenta[c]pyrrol-5-amine]
remaining activity at 30 µM (CHO-K1, % ACh maximum at 30 μM, read-out: Human M4 Emin): 4% | IC50: 1.1 nM

— patent US20240109873A1, “ANTAGONISTS OF THE MUSCARINIC ACETYLCHOLINE RECEPTOR M4” (Vanderbilt University, priority 2020, published 2024)
